Results: the supplement of paper PMC10307832

How the values were obtained:
Experiment in all cases: relative viability (nuclei count vs DMSO), 5 days (fraction); higher = more cells survive
[1] = compound: C1=CC=C2C(=C1)C=CC(=C2SSC3=C(C=CC4=CC=CC=C43)O)O [IPA-3] + Cc1cc(Nc2cc(N3CCN(C)CC3)nc(Sc3ccc(NC(=O)C4CC4)cc3)n2)n[nH]1 [Tozasertib] (partner 0.1 µM)
Summary of the method: (§1)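 Lung cancer cell lines in 1536-well plates got either a single drug or a fixed anchor-drug dose together with five library-drug doses (not always all listed) in √10 steps, by pin tool, on the day after seeding. Nuclei were counted after 5 days, and relative viability is the treated-to-vehicle ratio of nuclei counts. Values are medians of duplicate plates.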

[2] = compound: Cc1ccc(-n2nc(C(C)(C)C)cc2NC(=O)Nc2ccc(OCCN3CCOCC3)c3ccccc23)cc1 [Doramapimod] + CC(=O)c1c(C)c2cnc(Nc3ccc(N4CCNCC4)cn3)nc2n(C2CCCC2)c1=O [Palbociclib] (partner 0.5 µM)
Summary of the method: as §1

[3] = compound: Cc1ccc(-n2nc(C(C)(C)C)cc2NC(=O)Nc2ccc(OCCN3CCOCC3)c3ccccc23)cc1 [Doramapimod] + COc1cc2c(Oc3ccc(NC(=O)C4(C(=O)Nc5ccc(F)cc5)CC4)cc3F)ccnc2cc1OCCCN1CCOCC1 [Foretinib] (partner 0.25 µM)
Summary of the method: as §1

[4] = compound: Cc1ccc(-n2nc(C(C)(C)C)cc2NC(=O)Nc2ccc(OCCN3CCOCC3)c3ccccc23)cc1 [Doramapimod] + Nc1nc2[nH]cc(CCc3ccc(C(=O)N[C@@H](CCC(=O)O)C(=O)O)cc3)c2c(=O)[nH]1 [Pemetrexed] (partner 0.2 µM)
Summary of the method: as §1

Cell Line: UMC-11
- relative viability ([1]; first compound 0.2 µM): 0.202
- relative viability ([1]; first compound 0.6325 µM): 0.205
- relative viability ([1]; first compound 2 µM): 0.215
- relative viability ([1]; first compound 6.325 µM): 0.224
- relative viability ([1]; first compound 20 µM): 0.225
- relative viability ([2]; first compound 0.02 µM): 0.342
- relative viability ([2]; first compound 0.06325 µM): 0.328
- relative viability ([2]; first compound 0.2 µM): 0.313
- relative viability ([2]; first compound 0.6325 µM): 0.323
- relative viability ([2]; first compound 2 µM): 0.308
- relative viability ([3]; first compound 0.02 µM): 0.954
- relative viability ([3]; first compound 0.06325 µM): 0.936
- relative viability ([3]; first compound 0.2 µM): 0.932
- relative viability ([3]; first compound 0.6325 µM): 0.988
- relative viability ([3]; first compound 2 µM): 0.982
- relative viability ([4]; first compound 0.02 µM): 0.711
- relative viability ([4]; first compound 0.06325 µM): 0.739
- relative viability ([4]; first compound 0.2 µM): 0.75
- relative viability ([4]; first compound 0.6325 µM): 0.708
- relative viability ([4]; first compound 2 µM): 0.743
